Our source for the IC50 values is patent US20120245137A1 (Zalicus Pharmaceuticals Ltd., priority 2009, published 2012).

Chain of N-type calcium channel subunits (α1B, α2δ, and β3a) (Q00975 whole entry): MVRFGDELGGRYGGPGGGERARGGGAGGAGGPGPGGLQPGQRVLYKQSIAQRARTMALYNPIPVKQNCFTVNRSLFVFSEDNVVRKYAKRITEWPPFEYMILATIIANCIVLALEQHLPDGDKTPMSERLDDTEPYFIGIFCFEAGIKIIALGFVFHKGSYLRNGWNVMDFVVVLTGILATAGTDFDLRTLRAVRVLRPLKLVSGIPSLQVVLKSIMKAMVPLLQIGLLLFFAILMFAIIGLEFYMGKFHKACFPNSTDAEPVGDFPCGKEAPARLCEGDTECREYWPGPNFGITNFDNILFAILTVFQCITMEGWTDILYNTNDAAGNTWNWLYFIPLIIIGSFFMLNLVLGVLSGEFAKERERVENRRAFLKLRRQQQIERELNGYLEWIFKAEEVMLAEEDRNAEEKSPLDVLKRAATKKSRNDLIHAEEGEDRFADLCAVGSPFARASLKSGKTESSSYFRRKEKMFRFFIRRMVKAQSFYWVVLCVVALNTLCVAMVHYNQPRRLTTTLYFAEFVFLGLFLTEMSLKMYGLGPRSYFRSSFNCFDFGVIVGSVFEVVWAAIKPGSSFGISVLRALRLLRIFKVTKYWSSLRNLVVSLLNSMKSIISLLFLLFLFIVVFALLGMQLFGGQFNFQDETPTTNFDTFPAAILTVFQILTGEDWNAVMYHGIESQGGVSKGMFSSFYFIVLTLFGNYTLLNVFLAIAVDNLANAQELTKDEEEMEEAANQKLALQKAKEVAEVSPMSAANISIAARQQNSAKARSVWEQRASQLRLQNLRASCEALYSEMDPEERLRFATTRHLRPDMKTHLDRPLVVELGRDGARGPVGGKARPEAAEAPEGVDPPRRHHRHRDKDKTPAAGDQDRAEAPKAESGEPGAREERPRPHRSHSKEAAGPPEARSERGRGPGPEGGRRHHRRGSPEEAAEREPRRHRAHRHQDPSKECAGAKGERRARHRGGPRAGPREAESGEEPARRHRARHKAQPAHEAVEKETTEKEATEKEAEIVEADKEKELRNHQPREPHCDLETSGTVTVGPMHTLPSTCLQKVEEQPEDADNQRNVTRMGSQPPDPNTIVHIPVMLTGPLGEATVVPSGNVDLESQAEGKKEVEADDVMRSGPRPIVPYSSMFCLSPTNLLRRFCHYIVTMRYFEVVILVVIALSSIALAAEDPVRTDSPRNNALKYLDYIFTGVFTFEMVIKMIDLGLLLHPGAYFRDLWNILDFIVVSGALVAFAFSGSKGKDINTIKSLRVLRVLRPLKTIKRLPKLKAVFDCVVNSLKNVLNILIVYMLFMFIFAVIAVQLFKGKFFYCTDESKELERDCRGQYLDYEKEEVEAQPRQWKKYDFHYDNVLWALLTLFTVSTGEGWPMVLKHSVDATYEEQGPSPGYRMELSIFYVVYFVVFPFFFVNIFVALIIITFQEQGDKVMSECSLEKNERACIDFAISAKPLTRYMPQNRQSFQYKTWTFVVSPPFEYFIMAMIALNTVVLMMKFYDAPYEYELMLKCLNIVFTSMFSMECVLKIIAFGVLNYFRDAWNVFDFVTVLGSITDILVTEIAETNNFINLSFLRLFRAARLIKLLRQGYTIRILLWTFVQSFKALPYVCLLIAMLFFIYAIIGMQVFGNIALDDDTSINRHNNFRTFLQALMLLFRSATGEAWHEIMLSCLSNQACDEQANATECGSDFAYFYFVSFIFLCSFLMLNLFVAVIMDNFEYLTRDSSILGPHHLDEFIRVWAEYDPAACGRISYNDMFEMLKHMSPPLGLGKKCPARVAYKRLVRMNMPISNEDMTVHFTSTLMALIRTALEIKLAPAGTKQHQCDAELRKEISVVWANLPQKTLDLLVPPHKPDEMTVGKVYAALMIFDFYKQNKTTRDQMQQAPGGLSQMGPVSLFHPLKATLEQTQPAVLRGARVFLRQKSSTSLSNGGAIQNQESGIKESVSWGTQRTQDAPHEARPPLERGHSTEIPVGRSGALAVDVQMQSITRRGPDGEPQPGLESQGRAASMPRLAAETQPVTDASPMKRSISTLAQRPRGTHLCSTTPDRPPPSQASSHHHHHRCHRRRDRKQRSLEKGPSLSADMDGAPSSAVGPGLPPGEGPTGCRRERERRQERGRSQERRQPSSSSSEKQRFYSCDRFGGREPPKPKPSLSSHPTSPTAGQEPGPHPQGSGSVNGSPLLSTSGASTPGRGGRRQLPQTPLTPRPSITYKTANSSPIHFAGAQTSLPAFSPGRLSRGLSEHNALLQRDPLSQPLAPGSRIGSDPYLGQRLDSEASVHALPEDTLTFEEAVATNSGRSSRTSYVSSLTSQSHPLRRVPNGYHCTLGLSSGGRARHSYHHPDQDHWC
Chain of N-type calcium channel subunits (α1B, α2δ, and β3a) (P54289 25-1103 partner): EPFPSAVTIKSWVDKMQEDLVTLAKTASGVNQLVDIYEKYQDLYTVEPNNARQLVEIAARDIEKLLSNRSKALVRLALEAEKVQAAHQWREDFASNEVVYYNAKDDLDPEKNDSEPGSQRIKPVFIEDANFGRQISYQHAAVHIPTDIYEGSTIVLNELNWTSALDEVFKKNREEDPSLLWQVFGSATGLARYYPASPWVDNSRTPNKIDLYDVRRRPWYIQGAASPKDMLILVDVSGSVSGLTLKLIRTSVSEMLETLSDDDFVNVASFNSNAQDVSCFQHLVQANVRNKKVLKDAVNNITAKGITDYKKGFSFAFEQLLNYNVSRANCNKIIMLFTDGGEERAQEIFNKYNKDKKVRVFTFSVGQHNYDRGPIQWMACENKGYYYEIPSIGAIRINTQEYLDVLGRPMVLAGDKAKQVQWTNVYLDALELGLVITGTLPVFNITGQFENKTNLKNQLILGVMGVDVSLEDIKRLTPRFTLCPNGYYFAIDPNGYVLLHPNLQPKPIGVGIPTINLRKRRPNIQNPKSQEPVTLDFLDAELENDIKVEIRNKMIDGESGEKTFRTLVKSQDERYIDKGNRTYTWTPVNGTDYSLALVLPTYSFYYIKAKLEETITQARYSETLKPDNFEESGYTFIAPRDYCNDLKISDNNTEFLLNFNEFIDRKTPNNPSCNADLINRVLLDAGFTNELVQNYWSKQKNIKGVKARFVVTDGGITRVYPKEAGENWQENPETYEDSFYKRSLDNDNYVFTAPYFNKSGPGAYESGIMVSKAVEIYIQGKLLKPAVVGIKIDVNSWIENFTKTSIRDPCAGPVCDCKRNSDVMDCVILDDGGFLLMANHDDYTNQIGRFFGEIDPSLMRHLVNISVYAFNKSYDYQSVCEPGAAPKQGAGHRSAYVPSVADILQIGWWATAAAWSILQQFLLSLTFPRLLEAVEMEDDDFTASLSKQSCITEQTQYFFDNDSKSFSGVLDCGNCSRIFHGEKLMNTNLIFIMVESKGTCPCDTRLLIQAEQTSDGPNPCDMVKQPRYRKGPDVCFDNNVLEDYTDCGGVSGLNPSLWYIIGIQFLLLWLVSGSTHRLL
Chain of N-type calcium channel subunits (α1B, α2δ, and β3a) (P54284 whole entry partner): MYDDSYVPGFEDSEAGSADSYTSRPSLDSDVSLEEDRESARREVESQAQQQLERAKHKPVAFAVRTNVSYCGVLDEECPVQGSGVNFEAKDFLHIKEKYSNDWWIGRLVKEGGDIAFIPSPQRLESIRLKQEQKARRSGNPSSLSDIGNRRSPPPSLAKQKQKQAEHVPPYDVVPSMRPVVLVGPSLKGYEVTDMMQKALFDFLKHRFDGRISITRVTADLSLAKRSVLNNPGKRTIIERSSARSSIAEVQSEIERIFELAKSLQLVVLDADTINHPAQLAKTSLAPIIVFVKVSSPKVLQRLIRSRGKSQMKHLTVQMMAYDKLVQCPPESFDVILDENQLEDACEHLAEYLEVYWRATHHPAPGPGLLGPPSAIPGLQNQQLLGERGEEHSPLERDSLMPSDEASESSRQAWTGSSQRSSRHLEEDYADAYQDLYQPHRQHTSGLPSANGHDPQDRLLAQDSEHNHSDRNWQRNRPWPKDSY

The target of the first assay is human α1G T-type channels (Homo sapiens, UniProt O43497). Description: T-type calcium channel block, whole cell patch clamp, α1G. Format: cell-based. The note with it: HEK cells stably expressing human α1G; mainly non-inactivated protocol; values above 10,000 nM represented as 10000. As for the experimental part:
T-type calcium channel blocking activity was assayed in human embryonic kidneycells, HEK 293 (Invitrogen), stably transfected with the T-type calcium channel subunits. Briefly, cells were cultured in Dulbecco's modified eagle medium (DMEM) supplemented with 10% fetal bovine serum, 200 U/ml penicillin, and 0.2 mg/mL streptomycin at 37° C. with 5% CO2. At 85% confluency, cells were split with 0.25% trypsin/1 mM EDTA and plated at 10% confluency on glass coverslips. At 12 hours, the medium was replaced, and the cells stably transfected using a standard calcium phosphate protocol and the appropriate calcium channel cDNA's. Fresh DMEM was supplied, and the cells transferred to 28° C./5% CO2.
Standard patch-clamp techniques were employed to identify blockers of T-type currents. Briefly, previously described HEK cell lines stably expressing human α1G, α1H, and α1I T-type channels were used for all the recordings (passage #: 4-20, 37° C., 5% CO2). Whole cell patch clamp experiments were performed using an Axopatch 200B amplifier (Axon Instruments, Burlingame, Calif.) linked to a personal computer equipped with pCLAMP software. Data were analyzed using Clampfit (Axon Instruments) and SigmaPlot 4.0 (Jandel Scientific). To obtain T-type currents, plastic dishes containing semi-confluent cells were positioned on the stage of a ZEISS AXIOVERT S100 microscope after replacing the culture medium with external solution (Table 2). Whole-cell patches were obtained using pipettes (borosilicate glass with filament, O.D.: 1.5 mm, I.D.: 0.86 mm, 10 cm length), fabricated on a SUTTER P-97 puller with resistance values of ˜5 MΩ (Table 3).
T-type currents were reliably obtained by using two voltage protocols: • “non-inactivating,” and • “inactivation.”
Test compounds were dissolved in external solution, 0.1-0.01% DMSO. After ˜10 minutes rest, they were applied by gravity close to the cell using a WPI microfil tubing. The “non-inactivated” pre-pulse was used to examine the resting block of a compound. The “inactivated” protocol was employed to study voltage-dependent block.
What is called IC50 is the concentration at which inhibition is half-maximal. As for `Cc1cccc(C(=O)NCC(C)(C)S(=O)(=O)c2cccc(C(F)(F)F)c2)n1` [Compound 485, 6-methyl-N-(2-methyl-2-(3-(trifluoromethyl)phenylsulfonyl)propyl) picolinamide], the IC50 came to 710 nM.
Still for that read-out and setting: with `CN(CCC(C)(C)S(=O)(=O)c1cccc(C(F)(F)F)c1)C(=O)c1cc(C(F)(F)F)nn1C` [Compound 509, N,1-dimethyl-N-(3-methyl-3-(3-(trifluoromethyl)phenylsulfonyl)butyl)-3-(trifluoromethyl)-1H-pyrazole-5-carboxamide] the figure was 650 nM.
Same read-out and setting: the result for `CN(CCC(C)(C)S(=O)(=O)c1cccc(C(F)(F)F)c1)C(=O)c1ccc(C(F)(F)F)cc1S(C)(=O)=O` [Compound 508, N-methyl-N-(3-methyl-3-(3-(trifluoromethyl)phenylsulfonyl)butyl)-2-(methylsulfonyl)-4-(trifluoromethyl)benzamide] reads 850 nM; that for `CC(C)(CCNC(=O)c1ccnc(C(F)(F)F)n1)S(=O)(=O)c1cc(F)cc(C(F)(F)F)c1` [Compound 534, N-(3-(3-fluoro-5-(trifluoromethyl)phenylsulfonyl)-3-methylbutyl)-2-(trifluoromethyl)pyrimidine-4-carboxamide], 830 nM.

The target in a further assay is N-type calcium channel subunits (α1B, α2δ, and β3a) (Homo sapiens, UniProt Q00975). Description: Block of Cav2.2 channel, whole cell voltage clamp, manual and PatchXpress. The note with it: Table 5; table follows Assay Example 3 (whole cell voltage clamp / PatchXpress); assay not given. Format: cell-based. In a few lines:
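Percent block taken as current amplitude ratio with versus without compound, applied in rising doses; IC50 fitted where one cell received multiple doses. Protocol: 50 ms pulses to +20 mV at 0.067 Hz from […] or −90 mV holding; P/n leak subtraction, no junction-potential correction; manual and PatchXpress recordings.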
As for `O=C(NC[C@H]1C[C@H](S(=O)(=O)c2cc(F)cc(C(F)(F)F)c2)C1)c1cc(C(F)(F)F)ccn1` [Compound 397, N-(((1R,3R)-3-(3-fluoro-5-(trifluoromethyl)phenylsulfonyl)cyclobutyl)methyl)-4-(trifluoromethyl)picolinamide], the IC50 stood at 910 nM.
The same measure, in the same setting: with `CC(C)([C@H]1C[C@H](NC(=O)c2ccc(F)c(Cl)c2)C1)S(=O)(=O)c1cccc(C(F)(F)F)c1` [Compound 441, 3-chloro-4-fluoro-N-((1R,3R)-3-(2-(3-(trifluoromethyl)phenylsulfonyl)propan-2-yl)cyclobutyl)benzamide] the figure was 80 nM; with `O=C(NC[C@]1(O)CC[C@@H](S(=O)(=O)c2cccc(C(F)(F)F)c2)CC1)c1ccc(C(F)(F)F)nc1` [Compound 235, N-(((1S,4S)-1-hydroxy-4-(3-(trifluoromethyl)phenylsulfonyl)cyclohexyl)methyl)-6-(trifluoromethyl)nicotinamide], 5940 nM; with `O=S(=O)(c1cccc(C(F)(F)F)c1)[C@H]1C[C@H](c2c[nH]c(-c3ccc(C(F)(F)F)nc3)n2)C1` [Compound 445, 2-(trifluoromethyl)-5-(4-((1R,3R)-3-(3-(trifluoromethyl)phenylsulfonyl)cyclobutyl)-1H-imidazol-2-yl)pyridine], 200 nM.
On the same count and under the same terms, with `CC(C)(C)S(=O)(=O)c1ccsc1C(=O)N[C@H]1CC[C@H](S(=O)(=O)c2cccc(C(F)(F)F)c2)CC1` [Compound 191, 3-(tert-butylsulfonyl)-N-((1R,4R)-4-(3-(trifluoromethyl)phenylsulfonyl)cyclohexyl)thiophene-2-carboxamide] the figure was 1220 nM; with `O=C(CN[C@H]1C[C@H](S(=O)(=O)c2cccc(C(F)(F)F)c2)C1)NC1CCCCC1` [Compound 216, N-cyclohexyl-2-(trans-3-(3-(trifluoromethyl)phenylsulfonyl)cyclobutylamino)acetamide], 1010 nM.
Still for that read-out and setting: the result for `O=C(NC[C@H]1C[C@H](S(=O)(=O)c2cccc(C(F)(F)F)c2)C1)c1ccc(OCC(F)(F)F)nc1` [Compound 376, 6-(2,2,2-trifluoroethoxy)-N-(((1R,3R)-3-(3-(trifluoromethyl)phenylsulfonyl)cyclobutyl)methyl)nicotinamide] reads 540 nM; that for `O=C(N[C@H]1CC[C@H](S(=O)(=O)c2cccc(C(F)(F)F)c2)CC1)c1ccc(C(F)(F)F)nc1` [Compound 186, 6-(trifluoromethyl)-N-((1R,4R)-4-(3-(trifluoromethyl)phenylsulfonyl)cyclohexyl)nicotinamide], 5840 nM.
Take `O=S(=O)(c1cccc(C(F)(F)F)c1)[C@H]1C[C@H](c2c[nH]c(-c3ccc(OC(F)(F)F)cc3)n2)C1` [Compound 444, 2-(4-(trifluoromethoxy)phenyl)-4-((1R,3R)-3-(3-(trifluoromethyl)phenylsulfonyl)cyclobutyl)-1H-imidazole]: the IC50 worked out at 290 nM.
Still for that read-out and setting: the result for “3-(methylsulfonyl)-5-(trifluoromethyl)- N-(((1S,3S)- 3-(3-(trifluoromethyl) phenylsulfonyl)cyclobutyl) methyl)picolinamide [Compound 388]” reads 1060 nM; that for `O=C(N[C@H]1CC[C@H](S(=O)(=O)c2cccc(C(F)(F)F)c2)CC1)C1CCOCC1` [Compound 63, N-((1R,4R)-4-(3-(trifluoromethyl)phenylsulfonyl)cyclohexyl)tetrahydro-2H-pyran-4-carboxamide], 9980 nM.
Same read-out and setting: the result for `COc1cc(F)cc(C(=O)NC[C@H]2C[C@H](S(=O)(=O)c3cccc(C(F)(F)F)c3)C2)c1` [Compound 375, 3-fluoro-5-methoxy-N-(((1R,3R)-3-(3-(trifluoromethyl)phenylsulfonyl)cyclobutyl)methyl)benzamide] reads 260 nM; that for `O=C(N[C@H]1CC[C@@](F)(S(=O)(=O)c2cccc(C(F)(F)F)c2)CC1)C1CCCCN1` (stereo partly drawn) [Compound 283, N-((1S,4S)-4-fluoro-4-(3-(trifluorornethyl)phenylsulfonyl)cyclohexyl) piperidine-2-carboxamide], 580 nM; that for `CS(=O)(=O)c1cc(C(F)(F)F)ccc1C(=O)NC[C@]1(O)CC[C@@H](S(=O)(=O)c2cccc(C(F)(F)F)c2)CC1` [Compound 233, N-(((1S,4S)-1-hydroxy-4-(3-(trifluoromethyl)phenylsulfonyl)cyclohexyl)methyl)-2-(methylsulfonyl)-4-(trifluoromethyl)benzamide], 3570 nM.
Turning to `CC(C)NC(=O)CN[C@H]1CC[C@H](S(=O)(=O)c2cccc(C(F)(F)F)c2)CC1` [Compound 72, N-isopropyl-2-((1R,4R)-4-(3-(trifluoromethyl)phenylsulfonyl)cyclohexylamino)acetamide], the IC50 is 8580 nM.
Same read-out and setting: with `CC([C@H]1C[C@H](NC(=O)c2ncc(C(F)(F)F)cc2S(C)(=O)=O)C1)S(=O)(=O)c1cccc(C(F)(F)F)c1` (stereo partly drawn) [Compound 435, 3-(methylsulfonyl)-5-(trifluoromethyl)-N-((1R,3R)-3-((R)-1-(3-(trifluoromethyl)phenylsulfonyl)ethyl)cyclobutyl) picolinamide] the figure was 1470 nM; with `O=C(CN[C@H]1CC[C@H](S(=O)(=O)c2cccc(C(F)(F)F)c2)CC1)Nc1ccccn1` [Compound 77, N-(pyridin-2-yl)-2-((1R,4R)-4-(3-(trifluoromethyl)phenylsulfonyl)cyclohexylamino)acetamide], 740 nM; with `CC(C)([C@H]1C[C@H](NC(=O)c2ccc(C(F)(F)F)cc2S(C)(=O)=O)C1)S(=O)(=O)c1cccc(C(F)(F)F)c1` [Compound 439, 2-(methylsulfonyl)-4-(trifluoromethyl)-N-((1R,3R)-3-(2-(3-(tritluoromethyl)phenylsulfonyl)propan-2-yl)cyclobutyl)benzamide], 400 nM.
In the case of `Cc1cc(C(=O)N[C@H]2CC[C@H](S(=O)(=O)c3cccc(C(F)(F)F)c3)CC2)c(C(F)(F)F)o1` [Compound 185, 5-methyl-2-(trifluoromethyl)-N-((1R,4R)-4-(3-(trifluoromethyl)phenylsulfonyl)cyclohexyl)furan-3-carboxamide], the IC50 stood at 1630 nM.
On the same count and under the same terms, with `O=C(N[C@H]1CC[C@H](S(=O)(=O)c2cccc(C(F)(F)F)c2)CC1)c1ccnn1CC(F)(F)F` [Compound 180, 1-(2,2,2-trifluoroethyl)-N-((1R,4R)-4-(3-(trifluoromethyl)phenylsulfonyl)cyclohexyl)-1H-pyrazole-5-carboxamide] the figure was 3350 nM; with `O=C(NC[C@H]1C[C@H](S(=O)(=O)c2cc(F)cc(C(F)(F)F)c2)C1)c1ccc(Cl)c(Cl)c1` [Compound 395, 3,4-dichloro-N-(((1R,3R)-3-(3-fluoro-5-(trifluoromethyl)phenylsulfonyl)cyclobutyl)methyl)benzamide], 750 nM.
Still for that read-out and setting: the result for `O=C(N[C@H]1C[C@@H](S(=O)(=O)c2cccc(C(F)(F)F)c2)C1)c1ccc(C(F)(F)F)nc1` [Compound 430, 6-(trifluoromethyl)-N-((1S,3S)-3-(3-(triffuoromethyl)phenylsulfonyl)cyclobutyl) nicotinamide] reads above 10000 nM.
Still for that read-out and setting: with “2-chloro-6-(trifluoromethyl)-N- ((1R,4R)-4-(3- (tritluoromethyl)phenylsulfonyl) cyclohexyl)nicotinamide [Compound 187]” the figure was 7000 nM.
